Source: patent publication US20110039763A1, “TARGETED ANTIMICROBIAL MOIETIES” (C3 JIAN, INC., priority 2009, published 2011)

How the values were obtained:
[1] = tested on: MRSA; assay: MIC test / antimicrobial activity, MRSA; format: cell-based, Methicillin-resistant Staphylococcus aureus
In short: (§1)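 Broth microdilution with ~1×10^5 cfu/mL organisms in TH broth (S. mutans) or Mueller-Hinton broth (other organisms). Peptides added as 2-fold serial dilutions, then incubated 18-24 h at 37° C. Experiments run 10 times.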

[2] = tested on: T. rubrum; assay: MIC test / antimicrobial activity, T. rubrum; format: cell-based, Trichophyton rubrum
In short: as §1

[3] = tested on: A. niger; assay: MIC test / antimicrobial activity, A. niger; format: cell-based, Aspergillus niger
Method: (§2) The active AMPs, STAMPs and the like can be identified and/or validated using an in vitro screening assay.
(§3) It will be appreciated that other assays as are well known in the art or that will become apparent to those having skill in the art upon review of this disclosure may also be used to identify active AMPs. Such assays include, for example, the assay described in Lehrer et al. (1988) J. Immunol.
(§4) Peptides were evaluated for basic antimicrobial activity by broth microdilution, as described previously (Eckert et al. (2006) Antimicrob Agents Chemother., 50: 3651-3657; Eckert et al. (2006) Antimicrob Agents Chemother., 50: 1480-1488). Briefly, ˜1×10^5 cfu/mL bacteria were diluted in TH (S. mutans), or Mueller-Hinton (MH) broth (all other organisms) and distributed to 96-well plates. Serially-diluted (2-fold) peptides were then added and the plates incubated at 37° C. for 18-24 h. […] All experiments were conducted 10 times.

[4] = tested on: B. subtilis; assay: MIC test / antimicrobial activity, B. subtilis; format: cell-based, Bacillus subtilis; settings: B. subtilis
In short: as §1

[5] = tested on: S. epidermidis; assay: MIC test (broth microdilution) / antimicrobial activity, S. epidermidis; format: cell-based, Staphylococcus epidermidis; settings: S. epidermidis
In short: as §1

[6] = tested on: C. albicans; assay: MIC test / antimicrobial activity, C. albicans; format: cell-based, Candida albicans
Method: as §2, §3, §4

[7] = tested on: E. faecalis; assay: MIC test / antimicrobial activity, E. faecalis; format: cell-based, Enterococcus faecalis
Method: as §2, §3, §4

[8] = tested on: microorganisms; assay: Peptide activities: targeting/binding, antimicrobial, growth or phenotype altering (Tables 7, 8); format: cell-based; settings: peptides having multiple activities
[9] = tested on: microorganisms; assay: Morphology, biofilm and growth disrupting peptides (Table 5); format: cell-based; design: key: A: Peptide aggregates; B: Less hyphal formation; Clumps; Diffuse clumps and small polyps; F: Diffuse growth; H: Thin; I: Growth inhibition; Microcolony formation; Rippled; Small polyps; Thick; W: Halo formation on top, microlonies on bottom
Description: In certain embodiments peptides that induce alterations in phenotype or other biological activities can also be used as antimicrobial effector moieties.

## MRFGSLALVAYDSAIKHSWPRPSSVRRLRM [PF-672]
[1]
  Organism MIC (μM): MRSA, 1.56 μM
[2]
  Organism MIC (μM): T. rubrum, 0.78 μM
[3]
  Organism MIC (μM): A. niger, 3 μM
[4]
  Organism MIC (μM): B. subtilis, 0.78 μM
[5]
  Organism MIC (μM): S. epidermidis, 0.39 μM
[6]
  Organism MIC (μM): C. albicans, 1.56 μM
[7]
  Organism MIC (μM): E. faecalis, 3.13 μM
[8]
  Activities: G B M
[9]; B. subtilis
  Organism, effect: B. subtilis (I)
[9]; C. albicans
  Organism, effect: C. albicans (I)
[9]; C. jeikeium
  Organism, effect: C. jeikeium (R)
[9]; E. faecalis
  Organism, effect: E. faecalis (I)
[9]; MRSA
  Organism, effect: MRSA (I)
[9]; S. epidermidis
  Organism, effect: S. epidermidis (I)
[9]; S. pneumoniae
  Organism, effect: S. pneumoniae (I)
